The values that follow come from US20230382871A1, “CSF1R KINASE INHIBITOR AND USE THEREOF” (SHANGHAI INSTITUTE OF MATERIA MEDICA, CHINESE ACADEMY OF …, priority 2020, published 2023).

Assay [1] deals with mouse astrocytoma DBT subcutaneous xenografts. In words: Mouse astrocytoma DBT subcutaneous tumor model, alone or combined with anti-PD-1 antibody. In kind it is in vivo, BALB/c mice. To be noted: alone, 5 mg/kg po twice a day, 28 days. As for the experimental part:
Mouse astrocytoma DBT cell suspensions were injected subcutaneously into the right axillary fossa of BALB/c mice under aseptic conditions. The diameters of the subcutaneous xenografts in nude mice were measured with a vernier caliper. The animals were randomly grouped after the xenografts reached an average volume of 100 to 200 mm^3. Compound I was administered orally at a dose of 5 mg/kg (alone or in combination with an anti-PD-1 antibody) twice a day for 28 consecutive days. An anti-PD-1 antibody (Bio X Cell, InVivoMAb anti-mouse PD-1 (CD279) (cat. No. BE0146)) was administered intraperitoneally at a dose of 10 mg/kg (alone or in combination with Compound I) once every three days for 28 consecutive days. Throughout the experiment, the diameters of the xenografts were measured twice a week and the mice were weighed at the same time. The tumor volume (TV) was calculated as TV=½×a×b^2 where “a” and “b” denote the length and width of a tumor, respectively. The relative tumor volume (RTV) was calculated from the measurement results with the calculation formula RTV=Vt/V0, in which V0 is the tumor volume measured upon administration after grouping (i.e., D0) and Vt is the tumor volume from each measurement.
For all dose groups, n=9. The experimental data were analyzed for significant differences using the t-test. […]

In assay [2] the test system is phosphorylated AKT (p-AKT) in BMDM. In words: Western blot of CSF1-stimulated AKT phosphorylation in BMDM. To be noted: Mus musculus, 100 nM, 2 h, CSF1 50 ng/mL 15 min. In kind it is cell-based. As for the experimental part:
Bone marrow-derived macrophages, after induction by CSF1 for 5 to 7 days, were centrifuged to remove the previous medium. 2 mL of a serum-free medium was added. […] CSF1 factor was added at a final concentration of 50 ng/mL for stimulation for 15 minutes. The culture medium was discarded, and cells were washed three times with pre-cooled PBS. Then, the cells were lysed by adding 1×SDS gel loading buffer. The cell lysates were heated in a boiling water bath for 15 min, and then stored at −20° C.
A protein sample as described above was subjected to SDS-PAGE electrophoresis. Then, the protein was transferred to a nitrocellulose membrane using a semi-dry electrotransfer system. The nitrocellulose membrane was placed in a blocking solution (5% skim milk in TBS-T) and incubated for 2 h at room temperature. Then, the membrane was allowed to react with a primary antibody overnight at 4° C. After the membrane was washed with TBS-T for three times with 15 min each time, the membrane was allowed to react in a secondary antibody dilution at room temperature for 1-2 h. […]
The inhibitory effect of Compound I on CSF1R and its signaling pathway in mouse primary macrophages was detected by immunoblotting assays. Each experiment was independently repeated three times and all experimental results were quantified. […]
On the technique in general: A western blot detects proteins with antibodies after separation by electrophoresis.

In assay [3] the test system is BMDM cells. In words: CCK8 cell proliferation inhibition assay on CSF1-stimulated bone marrow-derived macrophages. In kind it is cell-based, mice (BALB/c). To be noted: Mus musculus, 72 h exposure. As for the experimental part: Mice (BALB/c) were subjected to euthanasia and then immersed in 75% alcohol for 3-5 min. The tibias and femurs of the mice were removed with ophthalmic forceps and ophthalmic clips on an ultraclean table. The tibial and femoral joints were cut off and bone marrow cells were washed out with a sterile buffer. Bone marrow cells were filtered with a 70 µm nylon membrane. The filtrate was centrifuged and the supernatant was discarded. An erythrocyte lysate was added to the pellets, which were allowed to incubate for 3-4 min. Then, a sterile buffer was added to stop the lysis reaction. The reactant was centrifuged and the supernatant was discarded, thereby yielding bone marrow cell pellets. The cells were cultured in 1640 medium (supplemented with FBS and 10 ng/mL of CSF1) for 5 to 7 days and identified as macrophages by flow cytometry. CCK8 cell counting kits were used in this assay. Bone marrow-derived macrophages, after induction by CSF1 for 5 to 7 days, were seeded into 96-well culture plates and allowed to incubate overnight. Then, the cells were exposed to compounds at various concentrations for 72 h. A blank control group was set. 10 μL of CCK8 reagent was added to each well and the places were placed in an incubator for 4 to 12 h. The plates were read with a microplate reader at a wavelength of 450 nm. […] Each experiment was independently repeated for three times.

The subject of assay [4] is human glioma U87MG brain in situ transplantation. In words: Survival in U87MG brain in situ transplantation model in nude mice. In kind it is in vivo, BALB/cA nude mice. To be noted: for ILS (%), Increase in Life Span: vs solvent group MST.
The subject of assay [5] is macrophage marker F4/80 in HT-29 tumor tissues. In words: Immunohistochemistry of macrophage marker F4/80 in HT-29 tumor tissues. In kind it is in vivo, nude mice. To be noted: Compound I 5, 10, 20 mg/kg; Axitinib 40 mg/kg. Here is the method: At the end of the in vivo experiments, U87MG and HT-29 xenografts in nude mice were removed and fixed with […] to prepare paraffin sections. Expression of individual proteins was assessed using multiplicative quick score method (MQS). This evaluation method takes into account both the staining intensity and the staining range. […] The average intensity score of positive stained cells was 0 to 3 (0=no staining; 1=weak staining; 2=moderate staining; 3=strong staining). The total score a (minimum 0 and maximum 18) is then calculated by multiplying the range score by the intensity score.

The mark [6] stands for this setting: 40 mg/kg, implantation day as Day 0.

Values joined by “and” are separate entries in the source; they are usually repeats but may differ in a detail not shown here. Equal values may be shown once.

As usually defined, the inhibition is the share of the control response that was lost under treatment. The term IC50 denotes the point on the concentration scale where inhibition reaches its midpoint. Consider `Cc1cc(NC(=O)c2cccc3cc(-c4cccc5[nH]nc(N)c45)ccc23)ccc1F` [Compound I], for which the “in vivo growth of DBT tumors” value in assay [1] is recorded as “no significant inhibitory activity”. The compound also yielded an inhibition at 0.1 µM in assay [2] of 64.4%. In assay [3], the IC50 stood at 93 nM. For the same compound, the “Median survival time, MST” value in assay [4] (20 mg/kg po twice a day from Day 8) is 54 days and 54.0 days; in assay [4] (40 mg/kg po twice a day from Day 8), 58.5 days. Further, the “ILS (%), Increase in Life Span” value came out at 17.39% in assay [4] (20 mg/kg) and 27.17% in assay [4] (40 mg/kg). Besides, in assay [4] (setting [6]), the “day of first death in the group” value came out at 43 days. Moreover, the “day of last death in the group” value in assay [4] (setting [6]) came to 75 days. The “expression of F4/80, HT-29 tumor tissue” value in assay [5] was “inhibited the expression of F4/80 and CD206 in a dose-dependent manner”.
